The results in this text go back to ChEMBL document CHEMBL1201862, “PubChem BioAssay data set” (2004).

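Protocol summary: plate cells (96-well), add compound at 5 concentrations, incubate 48 h, interpolate endpoints linearly. The concentration for 50% growth inhibition is given as GI50.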 Active and inactive are the calls of the source. Rule as the data show it: active = GI50 up to about 1.1 µM and inactive = higher. A value given as a limit tells only on which side of the number the result lay.

Test systems include A549; K562; U-251; PC-3; OVCAR-5; 786-0; Malme-3M; Hs-578T; EKVX; NCI-H23; OVCAR-8; UACC-257; SF-268; SF-295; T47D; SK-OV-3; BT-549; HOP-92; SR.
Common to all, as to test: NCI tumour cell line growth inhibition, 48 h

Consider `COC(=O)C1=C(O)C(C(=O)OC)[C@]2(O)[C@H](C(=O)OC)[C@H]1C[C@@H](c1ccc(Cl)cc1Cl)[C@H]2C(=O)OC` (some centres not stated), for which the GI50 with A549 is 4.36 µM (inactive); with K562, 3.47 µM (inactive); in the experiment with U-251, 2.72 µM (inactive); in the experiment with PC-3, 8.41 µM (inactive); in the experiment on OVCAR-5, 17 µM (inactive); in the experiment with 786-0 it was 26.3 µM (inactive). Besides, the GI50 is 6.95 µM (inactive) in the experiment on Malme-3M; 15.5 µM (inactive) in the experiment on Hs-578T; 19.1 µM (inactive) in the experiment on EKVX; 4.34 µM (inactive) in the experiment on NCI-H23; 4.81 µM (inactive) with OVCAR-8; 10 µM (inactive) in the experiment on UACC-257. For the same compound, the GI50 with SF-268 is 7.62 µM (inactive); in the experiment with SF-295, 7.46 µM (inactive); in the experiment on T47D, 4.83 µM (inactive); in the experiment with SK-OV-3 it was 13.2 µM (inactive); in the experiment on BT-549, 6.31 µM (inactive); with HOP-92, 7.96 µM (inactive). Further, the GI50 in the experiment with SR was 4.06 µM (inactive).

On to `N#CC1=C(N)N(/N=C/c2ccccc2)C(c2ccccc2)C1(C#N)C#N` (configuration not stated), for which the GI50 in the experiment on A549 was 18.7 µM (inactive); in the experiment on K562, 2.98 µM (inactive); in the experiment on U-251, 17.7 µM (inactive); with PC-3, 16.4 µM (inactive); in the experiment with OVCAR-5, 18.7 µM (inactive); with 786-0, 4.7 µM (inactive). Besides, the GI50 in the experiment with Malme-3M is 2.07 µM (inactive); with Hs-578T, 24.1 µM (inactive); with EKVX, 20.2 µM (inactive); with NCI-H23 it was 17.9 µM (inactive); with OVCAR-8 it was 18.7 µM (inactive); in the experiment on UACC-257 it was 9.38 µM (inactive). Moreover, the GI50 in the experiment on SF-268 was 20.7 µM (inactive); with SF-295, 17.1 µM (inactive); in the experiment on T47D, 6.87 µM (inactive); in the experiment on SK-OV-3, 12.6 µM (inactive); in the experiment with BT-549, 14.6 µM (inactive); in the experiment on HOP-92, 2.98 µM (inactive). The GI50 with SR was 2.26 µM (inactive).

Take `CCOC(=O)Nc1cc2c(c(N)n1)N=C(c1ccc(Cl)cc1Cl)CN2`: the GI50 in the experiment with A549 is < 0.0191 µM (active); in the experiment on K562, < 0.01 µM (active); with U-251, < 0.019 µM (active); with PC-3, < 0.0129 µM (active); in the experiment on OVCAR-5, 0.0392 µM (active); in the experiment on 786-0, < 0.0217 µM (active). Moreover, the GI50 in the experiment with Malme-3M was < 0.0178 µM (active); in the experiment with Hs-578T it was < 0.0143 µM (active); in the experiment on EKVX, 1.63 µM (inactive); in the experiment with NCI-H23, 0.0834 µM (active); in the experiment on OVCAR-8, 0.0276 µM (active); in the experiment with UACC-257, 20.8 µM (inactive). For the same compound, the GI50 with SF-268 is 0.0845 µM (active); in the experiment on SF-295, 0.0112 µM (active); with T47D, 15.6 µM (inactive); in the experiment on SK-OV-3, 0.509 µM (active); in the experiment with BT-549 it was 0.791 µM (active); with HOP-92, 17.3 µM (inactive). The GI50 with SR is < 0.01 µM (active).

For the compound `O=C1C(c2c(O)[nH]c3ccccc23)=Nc2ccc(Br)cc21`, the GI50 in the experiment on A549 was 27.2 µM (inactive); with K562, 27.2 µM (inactive); with U-251, 19.5 µM (inactive); in the experiment on PC-3 it was 14.8 µM (inactive); with OVCAR-5 it was 49.3 µM (inactive); in the experiment with 786-0, 9.62 µM (inactive). The GI50 in the experiment with Malme-3M was > 100 µM (inactive); in the experiment on Hs-578T it was 19.5 µM (inactive); in the experiment with EKVX, 15.1 µM (inactive); with NCI-H23, 51.8 µM (inactive); in the experiment on OVCAR-8, 15.1 µM (inactive); with UACC-257 it was 58.6 µM (inactive). The GI50 was 25.4 µM (inactive) in the experiment on SF-268; 22.4 µM (inactive) with SF-295; 21.8 µM (inactive) with T47D; 18.4 µM (inactive) in the experiment on SK-OV-3; 28.2 µM (inactive) in the experiment with BT-549; 17.6 µM (inactive) in the experiment with HOP-92. The GI50 with SR was 26.5 µM (inactive).

With `OCCOc1ccccc2cccc1-2`, the GI50 was > 100 µM (inactive) in the experiment on A549; 84.7 µM (inactive) in the experiment with K562; > 100 µM (inactive) in the experiment on U-251; > 100 µM (inactive) in the experiment with PC-3; > 100 µM (inactive) in the experiment with OVCAR-5; > 100 µM (inactive) with 786-0. The GI50 in the experiment with Malme-3M, in the experiment on Hs-578T, in the experiment with EKVX, in the experiment on NCI-H23, in the experiment with OVCAR-8 and with UACC-257 was > 100 µM (inactive) each time. Also, the GI50 with SF-268 was > 100 µM (inactive); in the experiment on SF-295, > 100 µM (inactive); with T47D it was 47.1 µM (inactive); in the experiment with SK-OV-3, > 100 µM (inactive); with BT-549, > 100 µM (inactive); in the experiment with HOP-92, > 100 µM (inactive). Besides, the GI50 in the experiment on SR was 80 µM (inactive).

`O=C1Nc2ccc([N+](=O)[O-])cc2/C1=N/NC(=S)Nc1ccc([N+](=O)[O-])cc1`: the GI50 is 21.1 µM (inactive) with A549; 34.2 µM (inactive) in the experiment with K562; 23.7 µM (inactive) with U-251; 24.2 µM (inactive) in the experiment on PC-3; 28.7 µM (inactive) in the experiment with OVCAR-5; 16.9 µM (inactive) with 786-0. Further, the GI50 is 33.3 µM (inactive) in the experiment with Malme-3M; 51.9 µM (inactive) with Hs-578T; 26.2 µM (inactive) in the experiment with EKVX; 19.9 µM (inactive) in the experiment with NCI-H23; 31.5 µM (inactive) in the experiment on OVCAR-8; 20.8 µM (inactive) in the experiment on UACC-257. The GI50 in the experiment with SF-268 was 32.6 µM (inactive); in the experiment on SF-295, 19.8 µM (inactive); with T47D it was 19.1 µM (inactive); with SK-OV-3 it was 22.4 µM (inactive); with BT-549, 16.4 µM (inactive); in the experiment on HOP-92 it was 18.5 µM (inactive). Also, in the experiment on SR, the GI50 was 30.2 µM (inactive).

Turning to `CC(C)OP(=O)(OC(C)C)C(Nc1cccc(C(F)(F)F)c1)c1ccccc1` (configuration not stated), the GI50 was 30.5 µM (inactive) with A549; 23.4 µM (inactive) in the experiment on K562; 58.5 µM (inactive) in the experiment on U-251; 37.2 µM (inactive) in the experiment on PC-3; > 100 µM (inactive) with OVCAR-5; 70.3 µM (inactive) in the experiment on 786-0. The GI50 with Malme-3M is 32.3 µM (inactive); in the experiment on Hs-578T it was 75.3 µM (inactive); in the experiment on EKVX, 33.3 µM (inactive); in the experiment on NCI-H23, 55.6 µM (inactive); in the experiment on OVCAR-8, 59.4 µM (inactive); in the experiment with UACC-257, 39.1 µM (inactive). Moreover, the GI50 was > 100 µM (inactive) with SF-268; 47.9 µM (inactive) in the experiment on SF-295; 35.7 µM (inactive) with T47D; > 100 µM (inactive) in the experiment on SK-OV-3; 17.7 µM (inactive) in the experiment on BT-549; 17.1 µM (inactive) in the experiment with HOP-92. Moreover, the GI50 in the experiment with SR is 21.9 µM (inactive).

With `N=C(c1ccc(-c2cn3cc(C(=N)N4CCCC4)ccc3n2)cc1)N1CCCC1`, the GI50 in the experiment on A549, in the experiment with K562, with U-251, with PC-3, in the experiment on OVCAR-5 and in the experiment on 786-0 was > 100 µM (inactive) each time. For the same compound, the GI50 in the experiment on Malme-3M, with Hs-578T, in the experiment with EKVX, in the experiment with NCI-H23, in the experiment on OVCAR-8 and in the experiment on UACC-257 was > 100 µM (inactive) throughout. The GI50 is > 100 µM (inactive) in the experiment on SF-268; > 100 µM (inactive) with SF-295; > 100 µM (inactive) in the experiment with T47D; > 100 µM (inactive) with SK-OV-3; > 100 µM (inactive) in the experiment with BT-549; 3.86 µM (inactive) in the experiment with HOP-92. The GI50 with SR is > 100 µM (inactive).
